How the values were obtained:
[1] = test system: THP-1 (human monocytic) cells; experiment: Cytokine response (IL-1β, TNF-α, IL-10) of THP-1 cells treated with compounds; format: cell-based; conditions: 100-200 µM
Description: When THP-1 (human monocytic) cells were treated with 100-200 µM of compounds 8, 14, 17, 23, 29, and 32, they produced an increased IL-1β and TNF-α response, decreased anti-inflammatory cytokine IL-10 (FIG. 4).

TLR4 = TLR4 (Homo sapiens, UniProt O00206); experiment: TLR4 inhibitory and activating activity in THP-1 cells at low and high concentrations; format: cell-based; design: endogenous in cells; host or cells: THP-1 (human monocytic) cells; conditions: for % inhibition over control TLR4 / % activation over control TLR4: THP-1 cells; for TLR2/4 antagonist activity: as shown in Table-1 (FIG. 1), TLR2 and TLR4
TLR2 = biological target: T1, TLR2 (Homo sapiens, UniProt O60603); experiment: TLR2 activity in PMA-stimulated THP-1 monocyte cells, ELISA of cell lysate; format: cell-based; conditions: THP-1 cells
T1 construct: endogenous in cells; host or cells: THP-1 monocyte cells stimulated with PMA
Description: THP-1 monocyte cells (1×10^5) were stimulated with 200nM of PMA for 48h and treated with different concentrations of test compounds. The TLR2 activity was measured after 24 h from the cell lysate using ELISA.

hPBMC = experiment: Cytotoxicity in hPBMC, MTT cell proliferation kit; format: cell-based, human; conditions: 0.1, 1.0, 10, 100 and 1000 µM, 24h
Description: The cells were treated with compounds and incubated for 24h. Cell viability was assessed using MTT cell proliferation kit (Promega).

HUVECs = experiment: Cytotoxicity in HUVECs, MTT cell proliferation kit; format: cell-based, human; conditions: 100 µM, 24h
Description: Selected TLR2/4 antagonist compounds 2, 6, 7, 8, 14, 17 and 32 were evaluated for cytotoxicity in HUVECs at 100 µM concentration. The cells were treated with compounds and incubated for 24h. Cell viability was assessed using MTT cell proliferation kit (Promega). All the compounds were not toxic to HUVECs (FIG. 15).

[2] = test system: VEGF induced tube formation in HUVECs; experiment: Anti-angiogenic activity, Tube Formation kit, VEGF induced; format: cell-based, human; conditions: VEGF 100ng/mL
Description: Selected TLR2/4 antagonist compounds 2, 6, 7, 8, 14, 17 and 32 were evaluated for anti-angiogenic activity using the Tube Formation kit (Cat#3470-096-K). VEGF (100ng/mL) was used as positive control. These compounds have potential applications in diseases associated with pathological angiogenesis such as solid tumor, […], diabetic retinopathy as well as AMD.

[3] = test system: hyperoxia induced BPD in mouse pups; experiment: Hyperoxia-exposed BPD mouse model (newborn pups); format: in vivo
Description: Neonatal mice and humans undergo similar stages of lung development but differ with respect to the duration of each stage and its temporal relationship to gestational age. The lungs of the mouse born at term are in the saccular stage and are surfactant sufficient; this can be considered somewhat akin to a human preterm neonate in the same stage of lung development that has been exposed to a full complement of antenatal steroids (which is known to enhance surfactant production). In terms of mimicking the human condition, the most successful hyperoxia models are those that limit exposure to hyperoxia to the saccular stage of pulmonary development. The mouse BPD model involves exposing newborn mice (postnatal day 1 or PN1) to 100% oxygen till PN4 followed by recovery in room air (RA) for another 10 days.
After the recovery period, their lungs were harvested and processed for quantitative PCR, western blotting, histopathology and ELISA.
After the recovery period, their lungs were harvested and processed for quantitative PCR, western blotting and histopathology and ELISA.
BPD is characterized by large simplified alveoli, inflammation, increased cell death, decreased cell proliferation, dysmorphic capillary configuration, and variable interstitial cellularity and/or fibroproliferation. […] This is determined by measuring the alveolar chord length, septal thickness and radial alveolar count (RAC). In BPD, the alveolar area increases which is characterized by increase in the diameter of the alveolar sacs, the septa become thickened (thus interfering in gaseous exchange) and the RAC, a parameter used to assess the complexity of terminal respiratory unit by pulmonologists, decreases as a result of arrested lung development.

[4] = test system: P. aeruginosa (ATCC-10145 GFP) infected skin wounds; experiment: Murine study of skin wound infection; format: in vivo, C57BL6 mice
Description: Five groups of C57BL/6 mice (8-10 weeks old, n = 4) were wounded on the dorsal surface. 25µl containing 10^6 CFU/mL P. aeruginosa in a PBS suspension were pipetted onto the wound and allowed to absorb for at least 3 min. […] Subsequently and for the next 13 days, infected wounds were treated each alternate day with colistin, or with test compounds.
Along with that less focal inflammation is observed in compound treated groups vs PA group.

T1 sequence (O60603 21-784): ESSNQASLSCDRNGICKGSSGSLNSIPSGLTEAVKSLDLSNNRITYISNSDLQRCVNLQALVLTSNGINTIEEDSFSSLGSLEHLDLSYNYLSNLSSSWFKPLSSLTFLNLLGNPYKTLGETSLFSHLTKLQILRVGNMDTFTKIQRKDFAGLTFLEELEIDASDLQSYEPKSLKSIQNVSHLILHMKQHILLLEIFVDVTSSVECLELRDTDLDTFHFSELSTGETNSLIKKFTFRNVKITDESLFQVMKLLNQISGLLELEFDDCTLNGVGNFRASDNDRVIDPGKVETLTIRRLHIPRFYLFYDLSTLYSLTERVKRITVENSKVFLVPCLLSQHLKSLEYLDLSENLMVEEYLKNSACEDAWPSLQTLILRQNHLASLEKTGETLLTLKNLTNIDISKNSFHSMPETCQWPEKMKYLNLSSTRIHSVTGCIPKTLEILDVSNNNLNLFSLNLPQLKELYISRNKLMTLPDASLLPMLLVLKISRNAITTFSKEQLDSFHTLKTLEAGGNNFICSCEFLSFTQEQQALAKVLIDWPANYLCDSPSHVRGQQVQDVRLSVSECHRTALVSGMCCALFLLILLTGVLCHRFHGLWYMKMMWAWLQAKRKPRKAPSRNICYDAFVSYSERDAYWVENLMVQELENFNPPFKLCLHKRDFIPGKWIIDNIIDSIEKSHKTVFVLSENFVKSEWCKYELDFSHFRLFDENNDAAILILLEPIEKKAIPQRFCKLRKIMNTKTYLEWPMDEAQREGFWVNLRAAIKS
Chain of TLR4 (O00206 24-839): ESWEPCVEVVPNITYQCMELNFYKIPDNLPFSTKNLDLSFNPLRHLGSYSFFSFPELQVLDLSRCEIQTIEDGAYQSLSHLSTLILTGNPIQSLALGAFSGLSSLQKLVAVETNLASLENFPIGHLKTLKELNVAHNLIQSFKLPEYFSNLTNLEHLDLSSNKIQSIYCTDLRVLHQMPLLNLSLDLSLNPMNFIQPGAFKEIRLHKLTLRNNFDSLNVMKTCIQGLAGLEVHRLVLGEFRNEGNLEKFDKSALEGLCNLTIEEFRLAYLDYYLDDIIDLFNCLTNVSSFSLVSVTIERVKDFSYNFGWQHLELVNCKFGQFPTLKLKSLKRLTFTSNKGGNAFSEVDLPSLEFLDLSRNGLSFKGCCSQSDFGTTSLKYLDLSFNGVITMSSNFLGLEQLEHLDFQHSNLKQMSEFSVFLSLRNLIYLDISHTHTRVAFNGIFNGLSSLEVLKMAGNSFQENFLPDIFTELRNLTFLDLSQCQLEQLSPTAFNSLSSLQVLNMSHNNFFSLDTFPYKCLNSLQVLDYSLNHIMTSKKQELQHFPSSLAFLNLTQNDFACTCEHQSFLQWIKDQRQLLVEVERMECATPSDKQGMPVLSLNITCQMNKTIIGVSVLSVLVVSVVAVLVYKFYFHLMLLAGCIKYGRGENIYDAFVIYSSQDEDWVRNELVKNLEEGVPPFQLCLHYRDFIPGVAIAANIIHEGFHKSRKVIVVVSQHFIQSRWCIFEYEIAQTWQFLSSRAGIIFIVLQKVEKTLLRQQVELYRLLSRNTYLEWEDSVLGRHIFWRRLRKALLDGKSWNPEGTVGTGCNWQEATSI
Chain of TLR4 (Q9Y6Y9 17-160 partner limits assumed): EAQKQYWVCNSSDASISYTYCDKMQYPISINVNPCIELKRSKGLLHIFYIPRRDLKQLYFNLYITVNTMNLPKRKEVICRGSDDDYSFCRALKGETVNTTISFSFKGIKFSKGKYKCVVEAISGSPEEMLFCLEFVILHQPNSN

Molecule | % inhibition over control TLR4 (TLR4; Concentration 1-10 µM) | % inhibition over control TLR4 (TLR4; Concentration 75-100 µM) | % activation over control TLR4 (TLR4; Concentration 75-100 µM) | TLR2/4 antagonist activity (TLR4; summary in words) | % inhibition over control TLR2 (TLR2; Concentration 1-10 µM) | % inhibition over control TLR2 (TLR2; Concentration 75-100 µM) | cytotoxicity in hPBMC (cell viability) (hPBMC) | cytotoxicity in HUVECs (cell viability) (HUVECs) | VEGF induced tube formation [2] | other results
CC(=O)NC1[C@H](Oc2cccc3sc(NC(=O)C(C)(C)C)nc23)O[C@H](CO)[C@@H](O)[C@@H]1O (single isomer, unassigned) [Compound 23] | + (+ means that the % of inhibition or activation is in the range of 15-25%) | + (+ means that the % of inhibition or activation is in the range of 15-25%) | – | – | – | – | – | – | – | IL-1β response [1]: increased; TNF-α response [1]: increased; anti-inflammatory cytokine IL-10 [1]: decreased
CC(=O)NC1[C@H](Oc2ccc(N3CCN(C(C)=O)CC3)cc2)O[C@H](CO)[C@@H](O)[C@@H]1O (single isomer, unassigned) [Compound 28] | + (+ means that the % of inhibition or activation is in the range of 15-25%) | – | ++ (++ means that the % of inhibition or activation is in the range of 25-75%) | – | – | – | – | – | – | –
CC(=O)NC1[C@H](Oc2ccc(B(O)O)cc2)O[C@H](CO)[C@@H](O)[C@@H]1O (single isomer, unassigned) [Compound 35, p-Boronic acid phenyl 2-acetamido-2-deoxy-β-D-glucopyranoside] | +++ (+++ means that the % of inhibition or activation is in the range of 75-95%) | – | ++ (++ means that the % of inhibition or activation is in the range of 25-75%) | potent TLR2/4 antagonists | – | – | – | – | – | TLR4 modulatory activity (TLR4; summary in words): concentration dependent TLR4 modulatory activity
CC(=O)N[C@H]1[C@H](Oc2ccc3nonc3c2)O[C@H](CO)[C@@H](O)[C@H]1O (stereo in doubt) [Compound 17, N-((2S,3R,4S,5S,6R)-2-(benzo[c][1,2,5]oxadiazol-5-yloxy)-4,5-dihydroxy-6-(hydroxymethyl)tetrahydro-2H-pyran-3-yl)acetamide] | – | – | ++ (++ means that the % of inhibition or activation is in the range of 25-75%) | – | ++ (++ means that the % of inhibition or activation is in the range of 25-75%) | +++ (+++ means that the % of inhibition or activation is in the range of 75-95%) | not toxic | not toxic | significantly decreased | IL-1β response [1]: increased; TNF-α response [1]: increased; anti-inflammatory cytokine IL-10 [1]: decreased
CC(=O)N[C@@H]1[C@@H](OC(C)=O)[C@H](OC(C)=O)[C@@H](COC(C)=O)O[C@H]1NC(=O)c1ccc(O[C@@H]2O[C@H](CO)[C@@H](O)[C@H](O)[C@H]2NC(C)=O)cc1 [Compound 2] | ++ (++ means that the % of inhibition or activation is in the range of 25-75%) | +++ (+++ means that the % of inhibition or activation is in the range of 75-95%) | – | potent TLR2/4 antagonists | + (+ means that the % of inhibition or activation is in the range of 15-25%) | +++ (+++ means that the % of inhibition or activation is in the range of 75-95%) | not toxic | not toxic | significantly decreased | –
CC(=O)N[C@@H]1[C@@H](O)[C@H](O)[C@@H](CO)O[C@H]1NC(=O)c1ccc(O[C@@H]2O[C@H](CO)[C@@H](O)[C@H](O)[C@H]2NC(C)=O)cc1 [Compound 3] | ++ (++ means that the % of inhibition or activation is in the range of 25-75%) | +++ (+++ means that the % of inhibition or activation is in the range of 75-95%) | – | potent TLR2/4 antagonists | ++ (++ means that the % of inhibition or activation is in the range of 25-75%) | +++ (+++ means that the % of inhibition or activation is in the range of 75-95%) | – | – | – | TLR4 inhibition in vivo ([3]; neonatal pups with BPD): inhibit; lung architecture ([3]; saline (IV) and nanosuspension (IN) formulation): restored
CC(=O)N[C@H]1[C@H](Oc2ccc(C(=O)Nc3ccc(O[C@@H]4O[C@H](COC(C)=O)[C@@H](OC(C)=O)[C@H](OC(C)=O)[C@H]4NC(C)=O)cc3)cc2)O[C@H](CO)[C@@H](O)[C@@H]1O [Compound 6] | ++ (++ means that the % of inhibition or activation is in the range of 25-75%) | +++ (+++ means that the % of inhibition or activation is in the range of 75-95%) | – | potent TLR2/4 antagonists | – | – | – | not toxic | significantly decreased | –
CC(=O)N[C@H]1[C@H](Oc2ccc(NC(=O)c3ccc(O[C@@H]4O[C@H](CO)[C@@H](O)[C@H](O)[C@H]4NC(C)=O)cc3)cc2)O[C@H](CO)[C@@H](O)[C@@H]1O [Compound 7] | +++ (+++ means that the % of inhibition or activation is in the range of 75-95%) | +++ (+++ means that the % of inhibition or activation is in the range of 75-95%) | – | potent TLR2/4 antagonists | ++ (++ means that the % of inhibition or activation is in the range of 25-75%) | +++ (+++ means that the % of inhibition or activation is in the range of 75-95%) | not toxic | not toxic | significantly decreased | –
CC(=O)N[C@H]1[C@H](Oc2ccc([N+](=O)[O-])cc2Cl)O[C@H](CO)[C@@H](O)[C@@H]1O [Compound 11] | + (+ means that the % of inhibition or activation is in the range of 15-25%) | + (+ means that the % of inhibition or activation is in the range of 15-25%) | – | – | – | – | – | – | – | –
CC(=O)N[C@H]1[C@H](Oc2ccc(C#N)cc2)O[C@H](CO)[C@@H](O)[C@@H]1O [Compound 14, p-Cyanophenyl 2-acetamido-2-deoxy-β-D-glucopyranoside] | – | – | – | potent TLR2/4 antagonists | – | – | not toxic | not toxic | significantly decreased | IL-1β response [1]: increased; TNF-α response [1]: increased; anti-inflammatory cytokine IL-10 [1]: decreased; % inhibition over control TLR4 (TLR4; Concentration 1 µM): +++ (+++ means that the % of inhibition or activation is in the range of 75-95%); % inhibition over control TLR4 (TLR4; Concentration 100 µM): +++ (+++ means that the % of inhibition or activation is in the range of 75-95%)
CC(=O)N[C@H]1[C@H](Oc2ccc3c(C)cc(=O)oc3c2)O[C@H](COS(=O)(=O)O)[C@@H](O)[C@@H]1O [Compound 30] | + (+ means that the % of inhibition or activation is in the range of 15-25%) | – | + (+ means that the % of inhibition or activation is in the range of 15-25%) | – | – | – | – | – | – | % activation over control TLR4 (TLR4; Concentration 1-10 µM): + (+ means that the % of inhibition or activation is in the range of 15-25%)
COc1ccc(O[C@@H]2O[C@H](CO)[C@@H](O)[C@H](O)[C@H]2NC(C)=O)cc1 [Compound 38] | – | – | – | – | – | ++ (++ means that the % of inhibition or activation is in the range of 25-75%) | – | – | – | –
colistin [reference compound] | – | – | – | – | – | – | – | – | – | Re-epithelialization and granulation tissue ([4]; H&E histology, day 13 post-injury, vs controls, p=0.050 (Colistin, compound 1), p=0.073 (compound 8)): significantly enhanced; closure of P. aeruginosa infected skin wounds ([4]; topical, each alternate day, day 13, compounds 100µM / 100µg /ml, Colistin 4µg/ml): complete closure
